Data set [1] can be described thus: solubility (listed characteristics). It is filed as physicochemical. The settings on record: water.
For data set [2] the following is noted: fermentation medium, pH values above pH 7.2. An excerpt:
In stirred fermentors the pH may be controlled by sensor controllers. Where this is impractical, such as in flask fermentors, pH may be controlled by adding 0.1 molar phosphate buffer to the medium prior to addition of the substrate.

The next data set in a line: acute toxicity in mice. It is filed as in vivo. The conditions noted are these: administered intravenously to mice. How it is done:
The acute toxicity of NTrp-p-(n-dodecyloxy)benzoyl-A―21978C, when administered intravenously to mice and expressed as LDso, was 67.5 mg/kg.

Here are results for 2 molecules from patent publication EP0095295B1, “Cyclic peptide derivatives” (ELI LILLY AND COMPANY, priority 1982, dated 1987).

Structures are written as SMILES.

Consider `C[C@H](CC(=O)O)[C@@H]1NC(=O)[C@@H](CO)NC(=O)CNC(=O)[C@H](CC(=O)O)NC(=O)[C@@H](C)NC(=O)[C@H](CC(=O)O)NC(=O)[C@H](CCCN)NC(=O)CNC(=O)[C@@H](NC(=O)[C@H](CC(=O)O)NC(=O)[C@H](CC(N)=O)NC(=O)[C@@H](N)Cc2c[nH]c3ccccc23)[C@@H](C)OC(=O)[C@H](CC(=O)c2ccccc2N)NC1=O` [A-21978C nucleus], for which, in data set [1], the Solubility result is reported as “soluble in water”. In data set [2], the “stability (alkaline hydrolysis)” value is “increasingly subject to alkaline hydrolysis”.

For the molecule `CCCCCCCCCCCCOc1ccc(C(=O)N[C@@H](Cc2c[nH]c3ccccc23)C(=O)N[C@@H](CC(N)=O)C(=O)N[C@@H](CC(=O)O)C(=O)N[C@@H]2C(=O)NCC(=O)N[C@@H](CCCN)C(=O)N[C@@H](CC(=O)O)C(=O)N[C@H](C)C(=O)N[C@@H](CC(=O)O)C(=O)NCC(=O)N[C@H](CO)C(=O)N[C@@H]([C@H](C)CC(=O)O)C(=O)N[C@@H](CC(=O)c3ccccc3N)C(=O)O[C@@H]2C)cc1` [NTrp-p-(n-dodecyloxy)benzoyl-A―21978C, NTrp-P-(n-dodecyloxy)benzoyl-A-21978C Nucleus], the “acute toxicity expressed as LDso” value in “acute toxicity in mice” turned out to be 67.5 mg/kg.
